From US9309224B2 (Deciphera Pharmaceuticals, LLC, priority 2013, dated 2016)

What was measured:
[1] = biological target: T1, unphosphorylated c-KIT kinase (uKIT, Seq. ID no. 2) (Homo sapiens, UniProt P10721); assay: uKit kinase assay (pyruvate kinase/lactate dehydrogenase coupled); format: biochemical; settings: ATP 2000 μM
T1 construct: uKit with N-terminal GST fusion used for
Protocol: In this assay, the oxidation of NADH (thus the decrease at A340 nm) was continuously monitored spectrophometrically. […] The inhibition reaction was started by mixing serial diluted test compound with the above reaction mixture. The absorption at 340 nm was monitored continuously for 4 hours at 30° C. on Synergy 2 plate reader (BioTech).

[2] = system: osteoclast precursors; assay: Osteoclast tartrate-resistant acid phosphatase assay; format: cell-based; settings: 7-14 days, RANKL and M-CSF
Protocol: Diluted compound was transferred to a 384-well black clear bottom plate. Two-thousand five hundred osteoclast precursors (Lonza, Walkersville, Md.) were added per well in growth media containing Receptor Activator of Nuclear Factor Kappa-beta ligand (RANKL) and M-CSF (R&D Systems, Minneapolis, Minn.). Plates were incubated for 7-14 days at 37 degrees Celsius, 5% CO2, and 95% humidity to allow differentiation of osteoclast precursors. […] Tartrate-resistant acid phosphatase activity in the supernatant samples was determined using an acid phosphatase assay kit (Sigma, St. Louis, Mo.). Absorbance was measured at 550 nm using a plate reader. Data was analyzed using Prism software (Graphpad, San Diego, Calif.) to calculate IC50 values.

[3] = biological target: T2, unphosphorylated PDGFRβ kinase (uPDGFRβ, Seq. ID No. 3) (Homo sapiens, UniProt P09619); assay: Unphosphorylated PDGFRβ kinase assay (pyruvate kinase/lactate dehydrogenase coupled); format: biochemical; settings: ATP 500 μM
T2 construct: purchased DeCode
Description: Unphosyhorylated PDGFRβ (uPDGFRβkinase (Seq. ID No. 3) assay

[4] = system: M-NFS-60 cells; assay: M-NFS-60 cell proliferation assay; format: cell-based; settings: 67 h incubation, resazurin
Protocol: M-NFS-60 Cell Proliferation Assay A serial dilution of test compound was dispensed into a 384-well black clear bottom plate (Corning, Corning, N.Y.). Two thousand five hundred cells were added per well in 50 μL complete growth medium. […] IC50 values were calculated from a series of percent inhibition values determined at a range of inhibitor concentrations using software routines as implemented in the GraphPad Prism software package.

[5] = biological target: T3, unphosphorylated c-FMS kinase (uFMS, Seq. ID no. 1) (Homo sapiens, UniProt P07333); assay: uFMS kinase assay (pyruvate kinase/lactate dehydrogenase coupled); format: biochemical; settings: ATP 500 μM
T3 construct: purchased Millipore
T3 sequence (P07333 538-972): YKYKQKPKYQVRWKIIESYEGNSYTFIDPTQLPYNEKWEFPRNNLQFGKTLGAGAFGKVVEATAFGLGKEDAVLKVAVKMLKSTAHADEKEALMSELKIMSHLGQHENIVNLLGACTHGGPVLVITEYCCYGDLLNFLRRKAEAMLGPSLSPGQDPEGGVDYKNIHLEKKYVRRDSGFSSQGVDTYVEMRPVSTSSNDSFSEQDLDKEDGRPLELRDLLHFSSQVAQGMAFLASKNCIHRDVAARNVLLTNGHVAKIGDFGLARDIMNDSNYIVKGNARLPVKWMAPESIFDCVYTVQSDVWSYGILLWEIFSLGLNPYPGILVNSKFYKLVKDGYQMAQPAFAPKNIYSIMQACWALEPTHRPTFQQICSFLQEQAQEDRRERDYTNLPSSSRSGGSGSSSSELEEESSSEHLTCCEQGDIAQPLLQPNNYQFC

T2 sequence (P09619 557-1105): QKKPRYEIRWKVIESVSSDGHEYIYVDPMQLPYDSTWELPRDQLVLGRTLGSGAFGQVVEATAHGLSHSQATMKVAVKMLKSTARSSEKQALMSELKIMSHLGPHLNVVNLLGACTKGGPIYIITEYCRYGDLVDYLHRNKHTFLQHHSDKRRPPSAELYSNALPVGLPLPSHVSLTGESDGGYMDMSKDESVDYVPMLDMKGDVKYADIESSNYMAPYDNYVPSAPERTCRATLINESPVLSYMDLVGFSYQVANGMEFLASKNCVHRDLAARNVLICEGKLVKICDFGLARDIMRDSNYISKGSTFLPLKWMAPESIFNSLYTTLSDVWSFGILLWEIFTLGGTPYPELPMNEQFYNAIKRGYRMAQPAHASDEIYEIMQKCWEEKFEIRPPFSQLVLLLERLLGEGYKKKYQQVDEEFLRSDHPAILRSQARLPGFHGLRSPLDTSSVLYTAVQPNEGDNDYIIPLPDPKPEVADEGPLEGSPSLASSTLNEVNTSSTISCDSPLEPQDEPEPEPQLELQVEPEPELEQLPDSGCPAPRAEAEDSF
T1 sequence (P10721 with tags, fused parts or gaps): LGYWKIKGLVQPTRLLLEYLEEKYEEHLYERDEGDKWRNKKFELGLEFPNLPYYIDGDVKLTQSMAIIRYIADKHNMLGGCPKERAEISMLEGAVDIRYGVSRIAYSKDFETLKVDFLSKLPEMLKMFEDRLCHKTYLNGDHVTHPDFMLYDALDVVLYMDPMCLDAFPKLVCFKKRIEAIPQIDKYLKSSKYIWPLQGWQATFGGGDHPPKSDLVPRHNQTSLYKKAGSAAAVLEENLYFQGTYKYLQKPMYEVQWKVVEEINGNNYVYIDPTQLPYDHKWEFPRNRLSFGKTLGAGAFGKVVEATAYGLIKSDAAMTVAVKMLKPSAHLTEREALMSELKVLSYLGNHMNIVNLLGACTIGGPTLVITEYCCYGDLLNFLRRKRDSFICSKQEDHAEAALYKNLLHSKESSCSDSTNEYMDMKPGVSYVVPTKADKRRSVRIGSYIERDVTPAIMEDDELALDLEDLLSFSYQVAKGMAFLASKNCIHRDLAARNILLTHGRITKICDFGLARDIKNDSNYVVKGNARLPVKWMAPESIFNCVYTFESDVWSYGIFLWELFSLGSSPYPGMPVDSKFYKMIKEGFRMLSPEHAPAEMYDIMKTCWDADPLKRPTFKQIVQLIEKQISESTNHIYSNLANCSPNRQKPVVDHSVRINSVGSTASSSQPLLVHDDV

IC50 [1]	IC50 ([2]; Osteoclast)	IC50 [3]	IC50 [5]	IC50 [2]	Structure (SMILES)	IC50 [4]
> 1000 nM	10 to 100 nM	10 to 100 nM	10 to 100 nM	–	CCC(=O)Nc1cc(Oc2ccc(NC(=O)NC(=O)C3CCOCC3)nc2)ccn1 [Example 32, N-((5-((2-propionamidopyridin-4-yl)oxy)pyridin-2-yl)carbamoyl)tetrahydro-2H-pyran-4-carboxamide]	10 to 100 nM
100 to 1000 nM	< 10 nM	< 10 nM	< 10 nM	–	O=C(NC(=O)C1CCOCC1)Nc1ccc(Oc2ccnc(NC(=O)C3CC3)c2)cn1 [Example 35, N-((5-((2-(cyclopropanecarboxamido)pyridin-4-yl)oxy)pyridin-2-yl)carbamoyl)tetrahydro-2H-pyran-4-carboxamide]	< 10 nM
> 1000 nM	10 to 100 nM	> 1000 nM	10 to 100 nM	–	CCC(=O)Nc1cc(Oc2ccc(NC(=O)NC(=O)C3(OC)CC3)nc2)ccn1 [Example 39, 1-methoxy-N-((5-((2-propionamidopyridin-4-yl)oxy)pyridin-2-yl)carbamoyl)cyclopropanecarboxamide]	10 to 100 nM
100 to 1000 nM	< 10 nM	100 to 1000 nM	< 10 nM	–	CC(=O)Nc1cc(Oc2ccc(NC(=O)NC(=O)C3(C)CCC3)nc2C)ccn1 [Example 43, N-((5-((2-acetamidopyridin-4-yl)oxy)-6-methylpyridin-2-yl)carbamoyl)-1-methylcyclobutanecarboxamide]	< 10 nM
100 to 1000 nM	< 10 nM	100 to 1000 nM	< 10 nM	–	CC(=O)Nc1cc(Oc2ccc(NC(=O)NC(=O)C3(C)CCC3)nc2)ccn1 [Example 44, N-((5-((2-acetamidopyridin-4-yl)oxy)pyridin-2-yl)carbamoyl)-1-methylcyclobutanecarboxamide]	< 10 nM
> 1000 nM	100 to 1000 nM	> 1000 nM	10 to 100 nM	–	COC1(C(=O)NC(=O)Nc2ccc(Oc3ccnc(NC(=O)C4CCN(C)CC4)c3)cn2)CC1 [Example 49, N-(4-((6-(3-(1-methoxycyclopropanecarbonyl)ureido)pyridin-3-yl)oxy)pyridin-2-yl)-1-methylpiperidine-4-carboxamide]	> 1000 nM
10 to 100 nM	< 10 nM	10 to 100 nM	< 10 nM	–	CN(C)C(=O)Nc1cc(Oc2ccc(NC(=O)NC(=O)C3(C)CC3)nc2)ccn1 [Example 50, N-((5-((2-(3,3-dimethylureido)pyridin-4-yl)oxy)pyridin-2-yl)carbamoyl)-1-methylcyclopropanecarboxamide]	< 10 nM
100 to 1000 nM	10 to 100 nM	10 to 100 nM	< 10 nM	–	CN(C)C(=O)Nc1cc(Oc2ccc(NC(=O)NC(=O)C3CCOCC3)nc2)ccn1 [Example 51, N-((5-((2-(3,3-dimethylureido)pyridin-4-yl)oxy)pyridin-2-yl)carbamoyl)tetrahydro-2H-pyran-4-carboxamide]	10 to 100 nM
10 to 100 nM	< 10 nM	100 to 1000 nM	< 10 nM	–	Cn1cc(C(=O)Nc2cc(Oc3ccc(NC(=O)NC(=O)C(C)(C)C)nc3)ccn2)cn1 [Example 52, 1-methyl-N-(4-((6-(3-pivaloylureido)pyridin-3-yl)oxy)pyridin-2-yl)-1H-pyrazole-4-carboxamide]	< 10 nM
> 1000 nM	10 to 100 nM	> 1000 nM	10 to 100 nM	–	CC(C)(C)C(=O)NC(=O)Nc1ccc(Oc2ccnc(NC(=O)CN3CCCC3)c2)cn1 [Example 53, N-((5-((2-(2-(pyrrolidin-1-yl)acetamido)pyridin-4-yl)oxy)pyridin-2-yl)carbamoyl)pivalamide]	> 1000 nM
> 1000 nM	100 to 1000 nM	> 1000 nM	10 to 100 nM	–	CN(C)CC(=O)Nc1cc(Oc2ccc(NC(=O)NC(=O)C(C)(C)C)nc2)ccn1 [Example 54, N-((5-((2-(2-(dimethylamino)acetamido)pyridin-4-yl)oxy)pyridin-2-yl)carbamoyl)pivalamide]	100 to 1000 nM
> 1000 nM	100 to 1000 nM	> 1000 nM	10 to 100 nM	–	CN1CCC(C(=O)Nc2cc(Oc3ccc(NC(=O)NC(=O)C(C)(C)C)nc3)ccn2)C1 (centres unmarked) [Example 55, 1-methyl-N-(4-((6-(3-pivaloylureido)pyridin-3-yl)oxy)pyridin-2-yl)pyrrolidine-3-carboxamide]	> 1000 nM
> 1000 nM	100 to 1000 nM	100 to 1000 nM	10 to 100 nM	–	CC(C)(C)C(=O)NC(=O)Nc1ccc(Oc2ccnc(NC(=O)CC#N)c2)cn1 [Example 56, N-((5-((2-(2-cyanoacetamido)pyridin-4-yl)oxy)pyridin-2-yl)carbamoyl)pivalamide]	> 1000 nM
> 1000 nM	100 to 1000 nM	> 1000 nM	100 to 1000 nM	–	CC(C)C(=O)NC(=O)Nc1ccc(Oc2ccnc(NC(=O)C3CCN(C)CC3)c2)cn1 [Example 57, N-(4-((6-(3-isobutyrylureido)pyridin-3-yl)oxy)pyridin-2-yl)-1-methylpiperidine-4-carboxamide]	> 1000 nM
100 to 1000 nM	< 10 nM	100 to 1000 nM	< 10 nM	–	Cn1cnc(C(=O)Nc2cc(Oc3ccc(NC(=O)NC(=O)C(C)(C)C)nc3)ccn2)c1 [Example 59, 1-methyl-N-(4-((6-(3-pivaloylureido)pyridin-3-yl)oxy)pyridin-2-yl)-1H-imidazole-4-carboxamide]	< 10 nM
> 1000 nM	10 to 100 nM	100 to 1000 nM	10 to 100 nM	–	CN(C)C1CC(C(=O)Nc2cc(Oc3ccc(NC(=O)NC(=O)C(C)(C)C)nc3)ccn2)C1 (centres unmarked) [Example 60, (1s,3s)-3-(dimethylamino)-N-(4-((6-(3-pivaloylureido)pyridin-3-yl)oxy)pyridin-2-yl)cyclobutanecarboxamide]	100 to 1000 nM
> 1000 nM	–	100 to 1000 nM	10 to 100 nM	10 to 100 nM	CN(C)C1CC(C(=O)Nc2cc(Oc3ccc(NC(=O)NC(=O)C(C)(C)C)nc3)ccn2)C1 (centres unmarked) [Example 61, (1r,3r)-3-(dimethylamino)-N-(4-((6-(3-pivaloylureido)pyridin-3-yl)oxy)pyridin-2-yl)cyclobutanecarboxamide]	100 to 1000 nM
> 1000 nM	10 to 100 nM	> 1000 nM	10 to 100 nM	–	CNC(=O)c1cc(Oc2ccc(NC(=O)NC(=O)C3(C(F)(F)F)CCC3)nc2)ccn1 [Example 72, N-methyl-4-((6-(3-(1-(trifluoromethyl)cyclobutanecarbonyl)ureido)pyridin-3-yl)oxy)picolinamide]	100 to 1000 nM
> 1000 nM	10 to 100 nM	> 1000 nM	100 to 1000 nM	–	CC(C)NC(=O)c1cc(Oc2ccc(NC(=O)NC(=O)C(C)(C)C)nc2)ccn1 [Example 73, N-isopropyl-4-((6-(3-pivaloylureido)pyridin-3-yl)oxy)picolinamide]	> 1000 nM
> 1000 nM	10 to 100 nM	> 1000 nM	10 to 100 nM	–	CC(C)(C)C(=O)NC(=O)Nc1ccc(Oc2ccnc(C(=O)NC3CC3)c2)cn1 [Example 74, N-cyclopropyl-4-((6-(3-pivaloylureido)pyridin-3-yl)oxy)picolinamide]	100 to 1000 nM
> 1000 nM	10 to 100 nM	> 1000 nM	100 to 1000 nM	–	CN1CCC(NC(=O)c2cc(Oc3ccc(NC(=O)NC(=O)C(C)(C)C)nc3)ccn2)CC1 [Example 75, N-(1-methylpiperidin-4-yl)-4-((6-(3-pivaloylureido)pyridin-3-yl)oxy)picolinamide]	> 1000 nM
10 to 100 nM	< 10 nM	10 to 100 nM	< 10 nM	–	CC(C)(C)C(=O)NC(=O)Nc1ccc(Oc2ccnc(NC(=O)N3CCCC3)c2)cn1 [Example 78, N-(4-((6-(3-pivaloylureido)pyridin-3-yl)oxy)pyridin-2-yl)pyrrolidine-1-carboxamide]	< 10 nM
